Assay results as given in patent US12303592B2, “Formulations for parenteral delivery of compounds and uses thereof” (Wyeth, LLC, priority 2006, dated 2025).

Experiment: Stopper compatibility evaluation (Table 14), HPLC Method A; for RRT 0.38: key: BRL=below recordable limit; for RRT 0.49: key: BRL=below recordable limit; for RRT 0.67: key: BRL=below recordable limit; for RRT 0.79: key: BRL=below recordable limit; for RRT 0.89: key: BRL=below recordable limit; for RRT 1.17: key: BRL=below recordable limit; for RRT 1.55: key: BRL=below recordable limit; for RRT 1.89: key: BRL=below recordable limit; for RRT 1.96: key: BRL=below recordable limit; for RRT 2.01: key: BRL=below recordable limit; for RRT 2.26: key: BRL=below recordable limit
Type: physicochemical
Parameters: RRT 1.77 / Total / RRT 1.66: unit not given here
From the text: Identical preparations prepared as described in Example 4 were stored in parallel in vials having either a 13 mm WPS S2-F451 4432/50 Gray B2-40 Westar RS stopper (West Pharmaceutical Services) or a 13 mm S2-F451 RS D 777-1 RB2 40 stopper (Daikyo Seiko, Ltd) under various conditions. Each of the stoppers has a FluoroTec® fluorocarbon film; the Westar 4432/50 stopper is chlorobutyl rubber, while the RB2-40 RS D 777-1 stopper is bromobutyl rubber. The presence of accumulation of degradant was assessed for each of the configurations (HPLC Method A).

[1] = Control at Room Temperature, 1 hours
[2] = Control at Room Temperature, 4 hours
[3] = RS-D 777-1 B2 40 from Daikyo Seiko Ltd. at 40° C., 1 hours
[4] = RS-D 777-1 B2 40 from Daikyo Seiko Ltd. at 40° C., 4 hours
[5] = RS-D 777-1 B2 40 from Daikyo Seiko Ltd. at Room Temperature, 1 hours
[6] = RS-D 777-1 B2 40 from Daikyo Seiko Ltd. at Room Temperature, 4 hours
[7] = Westar RS stopper (West Pharmaceutical Services) at 40° C., 1 hours
[8] = Westar RS stopper (West Pharmaceutical Services) at 40° C., 4 hours
[9] = Westar RS stopper (West Pharmaceutical Services) at Room Temperature, 1 hours
[10] = Westar RS stopper (West Pharmaceutical Services) at Room Temperature, 4 hours

In the case of `C[N+]1(CC2CC2)CC[C@]23c4c5ccc(O)c4O[C@H]2C(=O)CC[C@@]3(O)[C@H]1C5` (some centres unmarked) [MNTX, methylnaltrexone bromide], the “Initial” value (Control at 40° C., 1 hours) was 20.3 mg, the “RRT 0.38” value (Control at 40° C., 1 hours) was “BRL” and the “RRT 0.49” value (Control at 40° C., 1 hours) was “BRL”. The “RRT 0.67” value (Control at 40° C., 1 hours) was “BRL”, the “RRT 0.79” value (Control at 40° C., 1 hours) was “BRL” and the “RRT 0.89” value (Control at 40° C., 1 hours) was “BRL”. For the same molecule, the “RRT 1.17” value (Control at 40° C., 1 hours) was “BRL”, the “RRT 1.55” value (Control at 40° C., 1 hours) was “BRL” and the “RRT 1.66” value (Control at 40° C., 1 hours) was 0.12. For the same molecule, the “RRT 1.77” value (Control at 40° C., 1 hours) was “BRL”, the “RRT 1.89” value (Control at 40° C., 1 hours) was “BRL” and the “RRT 1.96” value (Control at 40° C., 1 hours) was “BRL”. The “RRT 2.01” value (Control at 40° C., 1 hours) was “BRL”, the “RRT 2.26” value (Control at 40° C., 1 hours) was “BRL” and the Total (Control at 40° C., 1 hours) was 0.12. The “Initial” value (Control at 40° C., 4 hours) was 20.3 mg, the “RRT 0.38” value (Control at 40° C., 4 hours) was “BRL” and the “RRT 0.49” value (Control at 40° C., 4 hours) was “BRL”. The “RRT 0.67” value (Control at 40° C., 4 hours) was “BRL”, the “RRT 0.79” value (Control at 40° C., 4 hours) was “BRL” and the “RRT 0.89” value (Control at 40° C., 4 hours) was “BRL”. The “RRT 1.17” value (Control at 40° C., 4 hours) was “BRL”, the “RRT 1.55” value (Control at 40° C., 4 hours) was “BRL” and the “RRT 1.66” value (Control at 40° C., 4 hours) was 0.12. The “RRT 1.77” value (Control at 40° C., 4 hours) was “BRL”, the “RRT 1.89” value (Control at 40° C., 4 hours) was “BRL” and the “RRT 1.96” value (Control at 40° C., 4 hours) was “BRL”. For the same molecule, the “RRT 2.01” value (Control at 40° C., 4 hours) was “BRL”, the “RRT 2.26” value (Control at 40° C., 4 hours) was “BRL” and the Total (Control at 40° C., 4 hours) was 0.12. For the same molecule, the “Initial” value [1] was 20.1 mg, the “RRT 0.38” value [1] was “BRL” and the “RRT 0.49” value [1] was “BRL”. For the same molecule, the “RRT 0.67” value [1] was “BRL”, the “RRT 0.79” value [1] was “BRL” and the “RRT 0.89” value [1] was “BRL”. The “RRT 1.17” value [1] was “BRL”, the “RRT 1.55” value [1] was “BRL” and the “RRT 1.66” value [1] was 0.12. The “RRT 1.77” value [1] was “BRL”, the “RRT 1.89” value [1] was “BRL” and the “RRT 1.96” value [1] was “BRL”. For the same molecule, the “RRT 2.01” value [1] was “BRL”, the “RRT 2.26” value [1] was “BRL” and the Total [1] was 0.12. For the same molecule, the “Initial” value [2] was 20.0 mg, the “RRT 0.38” value [2] was “BRL” and the “RRT 0.49” value [2] was “BRL”. The “RRT 0.67” value [2] was “BRL”, the “RRT 0.79” value [2] was “BRL” and the “RRT 0.89” value [2] was “BRL”. The “RRT 1.17” value [2] was “BRL”, the “RRT 1.55” value [2] was “BRL” and the “RRT 1.66” value [2] was 0.12. The “RRT 1.77” value [2] was “BRL”, the “RRT 1.89” value [2] was “BRL” and the “RRT 1.96” value [2] was “BRL”. For the same molecule, the “RRT 2.01” value [2] was “BRL”, the “RRT 2.26” value [2] was “BRL” and the Total [2] was 0.12. The “Initial” value (Initial) was 20.2 mg, the “RRT 0.38” value (Initial) was “BRL” and the “RRT 0.49” value (Initial) was “BRL”. The “RRT 0.67” value (Initial) was “BRL”, the “RRT 0.79” value (Initial) was “BRL” and the “RRT 0.89” value (Initial) was “BRL”. The “RRT 1.17” value (Initial) was “BRL”, the “RRT 1.55” value (Initial) was “BRL” and the “RRT 1.66” value (Initial) was 0.12. The “RRT 1.77” value (Initial) was “BRL”, the “RRT 1.89” value (Initial) was “BRL” and the “RRT 1.96” value (Initial) was “BRL”. The “RRT 2.01” value (Initial) was “BRL”, the “RRT 2.26” value (Initial) was “BRL” and the Total (Initial) was 0.12. The “Initial” value [3] was 20.1 mg, the “RRT 0.38” value [3] was “BRL” and the “RRT 0.49” value [3] was “BRL”. For the same molecule, the “RRT 0.67” value [3] was “BRL”, the “RRT 0.79” value [3] was “BRL” and the “RRT 0.89” value [3] was “BRL”. The “RRT 1.17” value [3] was “BRL”, the “RRT 1.55” value [3] was “BRL” and the “RRT 1.66” value [3] was 0.12. The “RRT 1.77” value [3] was 0.05, the “RRT 1.89” value [3] was “BRL” and the “RRT 1.96” value [3] was “BRL”. For the same molecule, the “RRT 2.01” value [3] was “BRL”, the “RRT 2.26” value [3] was “BRL” and the Total [3] was 0.17. For the same molecule, the “RRT 0.38” value [4] was “BRL”, the “RRT 0.49” value [4] was “BRL” and the “RRT 0.67” value [4] was “BRL”. For the same molecule, the “RRT 0.79” value [4] was “BRL”, the “RRT 0.89” value [4] was “BRL” and the “RRT 1.17” value [4] was “BRL”. The “RRT 1.55” value [4] was “BRL”, the “RRT 1.66” value [4] was 0.12 and the “RRT 1.77” value [4] was 0.05. The “RRT 1.89” value [4] was “BRL”, the “RRT 1.96” value [4] was “BRL” and the “RRT 2.01” value [4] was “BRL”. The “RRT 2.26” value [4] was “BRL”, the Total [4] was 0.17 and the “Initial” value [5] was 20.3 mg. The “RRT 0.38” value [5] was “BRL”, the “RRT 0.49” value [5] was “BRL” and the “RRT 0.67” value [5] was “BRL”. The “RRT 0.79” value [5] was “BRL”, the “RRT 0.89” value [5] was “BRL” and the “RRT 1.17” value [5] was “BRL”. The “RRT 1.55” value [5] was “BRL”, the “RRT 1.66” value [5] was 0.12 and the “RRT 1.77” value [5] was “BRL”. The “RRT 1.89” value [5] was “BRL”, the “RRT 1.96” value [5] was “BRL” and the “RRT 2.01” value [5] was “BRL”. For the same molecule, the “RRT 2.26” value [5] was “BRL”, the Total [5] was 0.12 and the “Initial” value [6] was 20.2 mg. The “RRT 0.38” value [6] was “BRL”, the “RRT 0.49” value [6] was “BRL” and the “RRT 0.67” value [6] was “BRL”. The “RRT 0.79” value [6] was “BRL”, the “RRT 0.89” value [6] was “BRL” and the “RRT 1.17” value [6] was “BRL”. For the same molecule, the “RRT 1.55” value [6] was “BRL”, the “RRT 1.66” value [6] was 0.12 and the “RRT 1.77” value [6] was “BRL”. For the same molecule, the “RRT 1.89” value [6] was “BRL”, the “RRT 1.96” value [6] was “BRL” and the “RRT 2.01” value [6] was “BRL”. For the same molecule, the “RRT 2.26” value [6] was “BRL”, the Total [6] was 0.12 and the “Initial” value [7] was 20.1 mg. The “RRT 0.38” value [7] was “BRL”, the “RRT 0.49” value [7] was “BRL” and the “RRT 0.67” value [7] was “BRL”. The “RRT 0.79” value [7] was “BRL”, the “RRT 0.89” value [7] was “BRL” and the “RRT 1.17” value [7] was “BRL”. For the same molecule, the “RRT 1.55” value [7] was “BRL”, the “RRT 1.66” value [7] was 0.06 and the “RRT 1.77” value [7] was “BRL”. The “RRT 1.89” value [7] was “BRL”, the “RRT 1.96” value [7] was “BRL” and the “RRT 2.01” value [7] was “BRL”. The “RRT 2.26” value [7] was “BRL”, the Total [7] was 0.06 and the “Initial” value [8] was 20.2 mg. For the same molecule, the “RRT 0.38” value [8] was “BRL”, the “RRT 0.49” value [8] was “BRL” and the “RRT 0.67” value [8] was “BRL”. The “RRT 0.79” value [8] was “BRL”, the “RRT 0.89” value [8] was “BRL” and the “RRT 1.17” value [8] was “BRL”. The “RRT 1.55” value [8] was “BRL”, the “RRT 1.66” value [8] was 0.06 and the “RRT 1.77” value [8] was 0.05. For the same molecule, the “RRT 1.89” value [8] was “BRL”, the “RRT 1.96” value [8] was “BRL” and the “RRT 2.01” value [8] was “BRL”. For the same molecule, the “RRT 2.26” value [8] was “BRL”, the Total [8] was 0.06 and the “Initial” value [9] was 20.3 mg. For the same molecule, the “RRT 0.38” value [9] was “BRL”, the “RRT 0.49” value [9] was “BRL” and the “RRT 0.67” value [9] was “BRL”. For the same molecule, the “RRT 0.79” value [9] was “BRL”, the “RRT 0.89” value [9] was “BRL” and the “RRT 1.17” value [9] was “BRL”. For the same molecule, the “RRT 1.55” value [9] was “BRL”, the “RRT 1.66” value [9] was 0.06 and the “RRT 1.77” value [9] was “BRL”. The “RRT 1.89” value [9] was “BRL”, the “RRT 1.96” value [9] was “BRL” and the “RRT 2.01” value [9] was “BRL”. For the same molecule, the “RRT 2.26” value [9] was “BRL”, the Total [9] was 0.06 and the “Initial” value [10] was 20.1 mg. The “RRT 0.38” value [10] was “BRL”, the “RRT 0.49” value [10] was “BRL” and the “RRT 0.67” value [10] was “BRL”. The “RRT 0.79” value [10] was “BRL”, the “RRT 0.89” value [10] was “BRL” and the “RRT 1.17” value [10] was “BRL”. For the same molecule, the “RRT 1.55” value [10] was “BRL”, the “RRT 1.66” value [10] was 0.06 and the “RRT 1.77” value [10] was “BRL”. The “RRT 1.89” value [10] was “BRL”, the “RRT 1.96” value [10] was “BRL” and the “RRT 2.01” value [10] was “BRL”. For the same molecule, the “RRT 2.26” value [10] was “BRL” and the Total [10] was 0.06.
